Active and inactive are the calls of the source.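 How the source made its calls: active means IC50 under 10 µM in the follow-up dose response; inactive means IC50 10 µM or more, or under 40% single-dose inhibition.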
Target: Tyrosine-protein phosphatase non-receptor type 22 (Homo sapiens) (UniProt Q9Y2R2)
Experiment: PTPN22 enzyme inhibition – biochemical, DiFMUP fluorescence, retest and dose response, confirmation (AID 1253)
Details: recombinant LYP; for inhibition: at 10 µM, stronger effect = higher value

Sequence of Tyrosine-protein phosphatase non-receptor type 22 (Homo sapiens) (Q9Y2R2 whole entry, looked up): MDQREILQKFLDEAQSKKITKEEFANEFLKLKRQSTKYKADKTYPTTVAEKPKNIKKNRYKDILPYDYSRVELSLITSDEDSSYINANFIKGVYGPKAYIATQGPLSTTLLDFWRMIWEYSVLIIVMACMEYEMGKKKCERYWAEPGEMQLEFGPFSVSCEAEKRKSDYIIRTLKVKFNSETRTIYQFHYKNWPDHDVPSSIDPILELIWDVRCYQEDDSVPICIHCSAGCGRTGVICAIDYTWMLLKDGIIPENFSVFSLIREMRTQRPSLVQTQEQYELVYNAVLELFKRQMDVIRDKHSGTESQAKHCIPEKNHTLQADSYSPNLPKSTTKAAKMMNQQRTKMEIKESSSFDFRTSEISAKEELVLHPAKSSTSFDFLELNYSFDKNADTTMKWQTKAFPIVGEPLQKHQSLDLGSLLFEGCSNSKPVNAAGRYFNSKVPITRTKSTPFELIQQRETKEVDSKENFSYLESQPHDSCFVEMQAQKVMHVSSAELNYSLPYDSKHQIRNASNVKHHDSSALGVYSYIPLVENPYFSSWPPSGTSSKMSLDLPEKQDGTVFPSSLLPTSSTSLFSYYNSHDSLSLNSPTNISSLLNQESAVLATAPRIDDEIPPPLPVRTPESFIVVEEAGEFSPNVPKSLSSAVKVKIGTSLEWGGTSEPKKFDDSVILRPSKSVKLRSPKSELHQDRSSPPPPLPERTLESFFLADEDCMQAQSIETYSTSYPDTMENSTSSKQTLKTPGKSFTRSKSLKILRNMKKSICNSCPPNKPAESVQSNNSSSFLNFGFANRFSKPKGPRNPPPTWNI

Structure (SMILES)	inhibition	IC50
Brc1ccc2nc(CSc3ncn[nH]3)cn2c1	inactive	–
CCCNc1cc(=O)n(C)c(=O)n1C	inactive	–
O=[N+]([O-])c1ccc(N2CCN(S(=O)(=O)c3ccc(Cl)cc3)CC2)cc1NCc1cccnc1	inactive	–
CC(C)CNc1nnnc2c1sc1nc(N3CCOCC3)c3c(c12)CC(C)(C)SC3	inactive	–
O=C(CSc1nnc(-c2ccc(Cl)s2)o1)N1CCCc2ccccc21	inactive	–
N#Cc1ccccc1CN1C(=O)S/C(=C/c2cccn2-c2cccc(C(=O)O)c2)C1=O	inactive	–
CN(C)c1ccc(/C=N/N=C2/NC(=O)/C(=C/c3ccc([N+](=O)[O-])cc3)S2)cc1	inactive	–
O=C(CN(C(=O)CNC(=O)c1ccco1)c1ccc2c(c1)OCO2)NC1CCCCC1	inactive	–
CCCCN(C(=O)CSc1nnc(Nc2ccc(C)c(C)c2)s1)c1c(N)n(Cc2ccccc2)c(=O)[nH]c1=O	inactive	–
C(=C/c1ccnc2nc(SC/C=C/c3ccccc3)nn12)/c1ccccc1	inactive	–
Cc1cc2c(cc1C)N(C(=O)CSC1=NCCS1)C(C)(C)c1ssc(=S)c1-2	inactive	–
COCCCNC(=O)c1cccn2c(=O)c3cc4ccccc4cc3nc12	inactive	–
Cc1ccc(C(=O)NNC(=O)CSc2nnc3c(n2)[nH]c2ccc(F)cc23)cc1	inactive	–
O=C(Nc1ccc2oc(-c3cccc4ccccc34)nc2c1)c1ncn[nH]1	inactive	–
COc1cc(-c2nnc(SCc3cc(=O)oc4cc(O)c(O)cc34)o2)cc(OC)c1OC	–	2600 nM
O=C(NNC(=O)c1cc2cc3ccccc3nc2s1)c1cccc(Cl)c1	inactive	–
CCC(C)n1c(C)nc2c(c1=O)c1nc3ccccc3nc1n2CCC1=CCCCC1 (stereo not given)	inactive	–
O=C(Nc1cnc2ccccc2c1)C1COc2ccccc2O1 (stereo not given)	inactive	–
COc1ccc2c(C)cc(SCC(=O)Nc3c(C)n(C)n(-c4ccccc4)c3=O)nc2c1	inactive	–
Cc1ccc(CSC2=Nc3ccccc3C3=NC(CC(=O)NCc4ccco4)C(=O)N23)cc1 (stereo not given)	inactive	–
CNC(=S)NNC(=O)c1cccn(Cc2cccc(Cl)c2)c1=O	inactive	–
COCCn1c(Cc2ccccc2)nnc1SCc1nc2ccccc2c(=O)[nH]1	inactive	–

Structure (SMILES)	inhibition	IC50
Cc1cc(C)n2nc(SCc3cc(=O)oc4cc(O)ccc34)nc2n1	inactive	–
CC1CCc2c(sc(NC(=O)c3ccc(Cn4cc([N+](=O)[O-])cn4)o3)c2C#N)C1 (stereo not given)	inactive	–
COc1ccc(CN2CCN(C(=O)c3ccco3)CC2)cc1	inactive	–
c1ccc(-c2ccc(C3=Nn4c(nnc4-c4cc(-c5ccccc5)n[nH]4)SC3)cc2)cc1	inactive	–
Cc1ccc2nc(NC(=O)c3cccc(-c4cc5ccccc5oc4=O)c3)sc2c1	inactive	–
CC(C)C(CCNC(=O)CC(Cc1ccccc1)c1ccco1)c1ccco1 (stereo not given)	inactive	–
Cc1nc(NC(=O)CC(C)C)sc1-c1csc(Nc2ccc(Cl)cc2)n1	inactive	–
Cc1ccc(-c2nnc(CSc3nnc(COc4cccc5ccccc45)n3-c3ccccc3)o2)cc1	inactive	–
COc1ccccc1OCc1nnc(SCC(=O)NCc2ccco2)n1Cc1ccco1	inactive	–
CCOC(=O)c1cn(-c2nc(-c3ccc(Cl)c(Cl)c3)cs2)c2c(F)c(N3CCOCC3)c(F)cc2c1=O	inactive	–
O=C1NC(=O)C(=Cc2cn(CCOc3ccc4c(c3)OCO4)c3ccccc23)C(=O)N1	inactive	–
COCc1cc(C)nc(Nc2ccccc2C)c1C#N	inactive	–
C=CCNC(=S)NNC(=O)c1cccn(Cc2ccc(Cl)cc2)c1=O	inactive	–
O=c1c(-c2nnc(SCc3ccc(Cl)cc3Cl)o2)cccn1Cc1ccccc1	inactive	–
O=C(CSc1nc2ccccc2c2nc3ccccc3n12)NCc1ccco1	inactive	–
O=C(Cn1cnc2ccccc21)Nc1ccc(C(=O)O)cc1	inactive	–
COc1ccc(C2C(=O)N(C3CCCCC3)CC(=O)N2C2CCCCC2)cc1 (stereo not given)	inactive	–
O=C(Nc1ccc(N2CCCCC2)c(Cl)c1)c1ccc2c(c1)OCCO2	inactive	–
CN1/C(=C\C=C\C2=[N+](C)c3ccc4ccccc4c3C2(C)C)C(C)(C)c2ccccc21	inactive	–
O=C(Nc1ccc2oc(-c3ccc4ccccc4c3)nc2c1)c1ccc2c(c1)OCCO2	inactive	–
O=C(N/N=C/c1ccc2ccccc2c1)c1ccc(COc2ccc3c(c2)CCC3)o1	inactive	–
CC(C)C(C(=O)O)N1C(=O)/C(=C/C=C/c2ccco2)SC1=S (stereo not given)	–	2940 nM

Structure (SMILES)	inhibition	IC50
COc1ccc(NC(=O)CSc2ccc3c4c(cccc24)C(=O)c2ccccc2-3)cc1	inactive	–
Cc1nnc(SCC(=O)N/N=C/c2cn(-c3ccccc3)nc2-c2ccccc2)n1-c1ccccc1	inactive	–
Cc1ccc(NC(=O)CN2C(=O)S/C(=C\c3cccn3-c3cccc(C(=O)O)c3)C2=O)c(C)c1	–	1270 nM
COc1ccc(C2C(C#N)=C(N)N(c3sc4c(c3C#N)CCCC4)C3=C2C(=O)CC(C)(C)C3)cc1OC (stereo not given)	inactive	–
COc1cccc(/C=N/NC(=O)c2ccc(-c3ccccc3)cc2)c1O	inactive	–
Cc1ccc(CNC(=O)c2ccccc2N)cc1	inactive	–
CNC(=S)NNC(=O)c1cccn(Cc2ccc(Cl)cc2Cl)c1=O	inactive	–
CCOc1ccc(N(CC(=O)Nc2ccccc2C(=O)NCc2ccco2)S(C)(=O)=O)cc1	inactive	–
O=c1c(/C=N/Nc2ccccc2)c(Sc2nnnn2-c2ccccc2)nc2ccccn12	inactive	–
CCOC(=O)c1ccc(NC(=O)CSc2nc(NC(=O)c3ccccc3)c3c(C)c(C)oc3n2)cc1	inactive	–
c1ccc(-c2cc(-c3nnc4n3N=C(c3ccc5ccccc5c3)CS4)[nH]n2)cc1	inactive	–
CC(C)(C)c1cc(NCCCn2ccnc2)n2ncc(-c3ccc(Cl)cc3)c2n1	inactive	–
Cc1ccc(-c2nn(CC(=O)NCc3cc(-c4nn(C)c(=O)c5ccccc45)ccc3C)c(=O)c3ccccc23)cc1	inactive	–
Cc1nc2ccc(S(=O)(=O)NCC(=O)NCc3ccc4c(c3)OCO4)cc2s1	inactive	–
CCN(CC(=O)NC(=O)NC1CCCCC1)Cc1nc2ccccc2c(=O)[nH]1	inactive	–
O=C(NC(C(=O)N/N=C/c1ccccc1)c1n[nH]c(=O)c2ccccc12)c1ccccc1 (stereo not given)	inactive	–
Cc1c(CCOC(=O)C2C3CC4CC(C3)CC2C4)sc[n+]1CC(=O)c1ccc(Br)cc1 (stereo not given)	inactive	–
Cc1cc(C)n2c(SCC(=O)N3CCN(S(=O)(=O)c4ccc(Cl)cc4)CC3)nnc2n1	inactive	–
CCOC(=O)C1=C(C)OC(N)=C(C#N)C1c1c(C)nn(-c2ccc(C)cc2)c1Cl (stereo not given)	inactive	–
CCOc1ccc(N2C(=O)CS/C2=C(\C(Cl)=C(Cl)Cl)[N+](=O)[O-])cc1	inactive	–
N#Cc1nc(-c2ccc(OCc3ccc(Cl)cc3)cc2)oc1NCCCn1ccnc1	inactive	–
CSc1ccc(/C=N\NC(=O)COc2ccc(Cl)cc2Br)cc1	inactive	–

Structure (SMILES)	inhibition	IC50
Nc1nnc(SCC(=O)Nc2ccc(S(=O)(=O)N3CCOCC3)cc2)s1	inactive	–
CCOC(=O)c1c(-n2c(C)cc(C=C3C(=O)NC(=S)NC3=O)c2C)sc2c1CCCC2	inactive	–
Cc1cc(SCC(=O)N/N=C/c2ccc(O)c(O)c2O)c(C)cc1Br	inactive	–
COc1ccc2cc3cc(C(=O)N4CCN(Cc5ccc6c(c5)OCO6)CC4)oc3nc2c1	inactive	–
COC(=O)c1sccc1-n1cccc1C(=O)N1CCOCC1	inactive	–
COc1ccc(S(=O)(=O)Nc2ccc(S(=O)(=O)N3CCCCC3)cc2)cc1	inactive	–
Cc1ccc2nc(NC(=S)NC(=O)c3cccs3)sc2c1	inactive	–
O=C(Nc1nc(-c2ccccn2)cs1)c1ncc(Cl)c(Cl)c1Cl	inactive	–
O=C(CCN1C(=O)c2ccccc2C1=O)Oc1ccc2ccccc2c1	inactive	–
O=C(OCC1OC(n2cnc3c(N(C(=O)c4ccccc4)C(=O)c4ccccc4)ncnc32)C(O)C1F)c1ccccc1 (stereo not given)	inactive	–
O=C(Cn1c(-c2ccc(Cl)cc2)noc1=O)N1CCN(c2ccccc2F)CC1	inactive	–
CCOc1ccc(N=C2NC(=O)S/C2=C\c2ccc(Cl)cc2)cc1	inactive	–
COc1ccc2nc(SCc3cnc(C)nc3N)[nH]c2c1	inactive	–
CN1CCn2c1nc(N1CCOCC1)nc2=O	inactive	–
CCCC(=O)Nc1ccc2c(c1)nc(CCNC(=O)c1ccccc1)n2C	inactive	–
Cc1ccc(C)c(OCC(=O)N/N=C/c2c(C)nn(-c3ccccc3)c2Cl)c1	inactive	–
Clc1ccc(C2=C3CCCCn4c(-c5ccccc5)c[n+](c43)C2)cc1	inactive	–
CCNC(=S)NNC(=O)c1cccn(Cc2ccc(Cl)cc2Cl)c1=O	inactive	–
Cc1cc(-c2c(C)[nH]n(-c3ccc(Cl)cc3)c2=O)n[nH]1	–	> 10000 nM (inactive)

— PubChem BioAssay AID1253 (Columbia University Molecular Screening Center, 2008)
